The source of these data is patent US11542302B2, “Modulators of melanocortin receptors for the treatment of depression and anxiety” (ARIZONA BOARD OF REGENTS ON BEHALF OF THE UNIVERSITY OF …, priority 2015, dated 2023).

This assay concerns the target hMC5R (Homo sapiens, UniProt P33032). The assay can be described thus: hMC5R intracellular cAMP accumulation. The format is cell-based. The following applies: relative to MT-II. A general note: Changes in cAMP serve as a functional read-out for many G protein-coupled receptors.

Sequence of hMC5R (P33032 whole entry): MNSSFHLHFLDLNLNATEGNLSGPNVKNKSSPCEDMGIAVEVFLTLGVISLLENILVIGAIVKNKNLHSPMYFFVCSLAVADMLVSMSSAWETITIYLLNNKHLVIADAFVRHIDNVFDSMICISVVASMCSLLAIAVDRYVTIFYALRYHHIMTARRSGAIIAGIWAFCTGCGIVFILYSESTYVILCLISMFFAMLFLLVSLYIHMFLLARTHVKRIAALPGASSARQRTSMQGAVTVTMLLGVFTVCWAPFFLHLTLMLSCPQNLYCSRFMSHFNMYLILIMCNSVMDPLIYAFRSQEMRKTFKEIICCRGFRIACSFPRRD

Take `N=C(N)NCCC[C@@H]1NC(=O)[C@@H](Cc2ccccc2)NC(=O)[C@H](CC2CCCCC2)NC(=O)c2cc([N+](=O)[O-])ccc2SC[C@@H](C(N)=O)NC(=O)[C@H](Cc2c[nH]c3ccccc23)NC1=O` [compound 2]: the “% Act at 10 μM (% of cAMP produced at 10 μM ligand concentration, in relation to MT-II)” value is on record as 0%.
